# Assays:
# [1] = tested on: Rice (cultivar: Nipponbare); assay: Test Example 1: promotion of root growth in hydroponics of rice; assay type: in vivo; details: 1 ppm in hydroponic solution; 3 days germination + 3 days cultivation
# Protocol: Rice (cultivar: Nipponbare)
# DMSO solutions containing each of the present compounds 1 to 3 at 10,000 ppm were prepared. A 1/10,000 volume of each DMSO solution containing each of the present compounds 1 to 3 at 10,000 ppm was added to a Hoagland solution for hydroponics at ¼ concentration (Hoagland and Arnon, California Agricultural Experiment Station 1950 Circular 347 pp. 34) to obtain a solution for hydroponics containing each of the present compounds 1 to 3 at 1 ppm. These solutions were used in the treated-group.
# In a non-treated group, a solution for hydroponics obtained by adding a Hoagland solution for hydroponics at ¼ concentration to a 1/10,000 volume of DMSO was used.
# The rice seeds were immersed in an aqueous solution of 1% sodium hypochlorite for 10 minutes, followed by 70% ethanol solution to sterilize their surfaces. After that, the seeds were washed with distilled water. The sterilized seeds were immersed in each solution for hydroponics containing the test compound at the given concentration, and incubated at a temperature of 28° C. for 3 days under dark conditions to stimulate the germination of the seeds.
# Then, 30 ml of each solution for hydroponics containing the test compound at the given concentration was dispensed into a plastic tube (20 mm in diameter×113 mm in height) covered with a cardboard on the lateral surface for blocking a light. A float made of a styrene board and a vinyl mesh was placed on the water surface of each solution for hydroponics, and the rice seeds obtained after the stimulation of germination were placed on the float. The seeds were cultivated for 3 days under the conditions of an illuminance of 4,000 lux at the top of the tube, a temperature of 26° C., a humidity of 50%, and a day length of 16 hours.
# The root length of the rice seedlings obtained after the cultivation was measured by using WinRHIZO system (manufactured by REGENT INSTRUMENTS). The average value of the root length in the treated group was calculated from the measurement values of 4 or 5 individuals. […]
# [2] = tested on: Corn (cultivar: Kuromochi); assay: Test Example 5: reduction of low-temperature stress by treatment of corn seeds; assay type: in vivo; details: 2.5±1° C. for 4 days, then 4 days at 27° C.
# Protocol: Corn (cultivar: Kuromochi) A blank slurry solution containing 10% (V/V) color coat red (Becker Underwood, Inc.), 10% (V/V) CF-Clear (Becker Underwood, Inc.) and 1.66% Maxim 4FS (Syngenta) was prepared. A slurry solution was prepared by dissolving the present compound 1 in the blank slurry solution such that 0.5 g, 5 g or 50 g of the compound is applied to each 100 kg of corn seeds. In a 50-ml centrifuge tube (manufactured by BD Japan), 0.35 ml of the slurry solution was placed for each 14.4 g of corn seeds and stirred until the solution was dried, thereby coating the seeds. In addition, seeds were coated with the blank slurry solution and used as seeds for a non-treated group. One of the treated corn seeds was sown in culture soil (AISAI) in each pot (55 mm in diameter×58 mm in height) and cultivated for 10 days under the conditions of a temperature of 27° C., an illuminance of 5,000 lux, and a day length of 16 hours. The grown seedlings were used for the test. The pots at 10 days after the sowing were placed into an artificial weather control room (VHT-2-[…]-NC2-S, manufactured by Nippon Medical & Chemical Instruments Co., Ltd) and cultivated for 4 days under the following conditions: -temperature: 2.5±1° C., day length: 16 hours, and illuminance: 5,000 lux. After the low-temperature stress treatment, the plants were cultivated for 4 days under the conditions of a temperature of 27° C., an illuminance of 5,000 lux, and a day length of 16 hours. Then, the fresh weight of the overground part of the plants was measured. The experiment was performed in four replications for each treatment condition and the average weight per individual was calculated. As a result, the fresh weight of the overground part of plants in the treated group of applying 0.5 g, 5 g or 50 g of the present compound 1 to each 100 kg of seeds was much heavier than that in the non-treated group.
smiles,measurement,setting,value
"O=C(O)c1cc2cc(C(F)(F)F)ccc2s1 [The present compound 1, 5-(trifluoromethyl)benzo[b]thiophene-2-carboxylic acid]",root length of the rice seedlings vs non-treated group,[1],much longer
same,fresh weight of the overground part of plants vs non-treated group,[2]; seed treatment 0.5 g per 100 kg of seeds,much heavier
same,fresh weight of the overground part of plants vs non-treated group,[2]; seed treatment 5 g per 100 kg of seeds,much heavier
same,fresh weight of the overground part of plants vs non-treated group,[2]; seed treatment 50 g per 100 kg of seeds,much heavier
